Experimental data from patent US20240101540A1, “TARGETED PROTEIN DEGRADATION OF PARP14 FOR USE IN THERAPY” (Ribon Therapeutics, Inc., priority 2022, published 2024).
Structures can show the parent of a compound that is named as a salt.

Biological target: T1, HiBiT tagged PARP14 (Homo sapiens, UniProt Q460N5)
T1 construct: engineered to contain a HiBiT tag on both alleles of the PARP14 gene; endogenous in cells; host or cells: Jurkat cells stably transfected with LgBiT (Promega), PARP14 locus edited by CRISPR/Cas9
Experiment: HiBiT assay for the degradation of PARP14 (HiBiT tagged PARP14 in LgBiT expressing Jurkat cells, 2 or 24 hours)
Format: cell-based
Conditions: Assay B (Example B): HiBiT tagged PARP14 degradation in LgBiT expressing Jurkat cells, read-out: DC50
Method: Jurkat cells stably transfected with LgBiT (Promega) were engineered to contain a HiBiT tag on both alleles of the PARP14 gene (Genbank Accession Number: NM_017554) via CRISPR/Cas9 editing. The HiBiT tag is an 11 amino acid tag created by Promega that associates with LgBiT protein to form the NanoLuc® tag on the C-terminus of PARP14. Clones were isolated and confirmed for the HiBiT tag via Sanger sequencing.
Degradation of PARP14 protein was assessed by measuring the luminescence of the HiBiT tag associating with the LgBiT protein as a proxy for the PARP14 protein.
Jurkat cells were diluted to 250,000 cells per mL and then added to assay plate (Corning 3574) using a Multidrop (Thermo Fisher) to add 20 μL per well of the 384 well plate, resulting in 5,000 cells per well. 20 nL of a dose response curve diluted in DMSO of each test compound was added to the cell plate using a Mosquito (TTP Labtech) and the plate was incubated at 37° C. for 2 or 24 hours. Assay plate was brought to room temperature then 5 μL per well of Live Cell Substrate (Promega) was added to the plate. Luminescence was measured on an Envision (Perkin Elmer).
The average DMSO was calculated from 32 wells containing 0.1% DMSO only in columns 12 and 24 of the assay plate. The % of DMSO values were calculated as described below: […]
The % of DMSO values were plotted as a function of compound concentration and the following 4-parameter fit was applied to derive the DC50 values:
where top, bottom, and Hill Coefficient are allowed to float. Y is the % of DMSO and X is the compound concentration.
DC50 data for the Example compounds is provided below in Table 2 (“+” is ≤0.03 μM; “++” is ≥0.03 μM).

T1 sequence (Q460N5 whole entry): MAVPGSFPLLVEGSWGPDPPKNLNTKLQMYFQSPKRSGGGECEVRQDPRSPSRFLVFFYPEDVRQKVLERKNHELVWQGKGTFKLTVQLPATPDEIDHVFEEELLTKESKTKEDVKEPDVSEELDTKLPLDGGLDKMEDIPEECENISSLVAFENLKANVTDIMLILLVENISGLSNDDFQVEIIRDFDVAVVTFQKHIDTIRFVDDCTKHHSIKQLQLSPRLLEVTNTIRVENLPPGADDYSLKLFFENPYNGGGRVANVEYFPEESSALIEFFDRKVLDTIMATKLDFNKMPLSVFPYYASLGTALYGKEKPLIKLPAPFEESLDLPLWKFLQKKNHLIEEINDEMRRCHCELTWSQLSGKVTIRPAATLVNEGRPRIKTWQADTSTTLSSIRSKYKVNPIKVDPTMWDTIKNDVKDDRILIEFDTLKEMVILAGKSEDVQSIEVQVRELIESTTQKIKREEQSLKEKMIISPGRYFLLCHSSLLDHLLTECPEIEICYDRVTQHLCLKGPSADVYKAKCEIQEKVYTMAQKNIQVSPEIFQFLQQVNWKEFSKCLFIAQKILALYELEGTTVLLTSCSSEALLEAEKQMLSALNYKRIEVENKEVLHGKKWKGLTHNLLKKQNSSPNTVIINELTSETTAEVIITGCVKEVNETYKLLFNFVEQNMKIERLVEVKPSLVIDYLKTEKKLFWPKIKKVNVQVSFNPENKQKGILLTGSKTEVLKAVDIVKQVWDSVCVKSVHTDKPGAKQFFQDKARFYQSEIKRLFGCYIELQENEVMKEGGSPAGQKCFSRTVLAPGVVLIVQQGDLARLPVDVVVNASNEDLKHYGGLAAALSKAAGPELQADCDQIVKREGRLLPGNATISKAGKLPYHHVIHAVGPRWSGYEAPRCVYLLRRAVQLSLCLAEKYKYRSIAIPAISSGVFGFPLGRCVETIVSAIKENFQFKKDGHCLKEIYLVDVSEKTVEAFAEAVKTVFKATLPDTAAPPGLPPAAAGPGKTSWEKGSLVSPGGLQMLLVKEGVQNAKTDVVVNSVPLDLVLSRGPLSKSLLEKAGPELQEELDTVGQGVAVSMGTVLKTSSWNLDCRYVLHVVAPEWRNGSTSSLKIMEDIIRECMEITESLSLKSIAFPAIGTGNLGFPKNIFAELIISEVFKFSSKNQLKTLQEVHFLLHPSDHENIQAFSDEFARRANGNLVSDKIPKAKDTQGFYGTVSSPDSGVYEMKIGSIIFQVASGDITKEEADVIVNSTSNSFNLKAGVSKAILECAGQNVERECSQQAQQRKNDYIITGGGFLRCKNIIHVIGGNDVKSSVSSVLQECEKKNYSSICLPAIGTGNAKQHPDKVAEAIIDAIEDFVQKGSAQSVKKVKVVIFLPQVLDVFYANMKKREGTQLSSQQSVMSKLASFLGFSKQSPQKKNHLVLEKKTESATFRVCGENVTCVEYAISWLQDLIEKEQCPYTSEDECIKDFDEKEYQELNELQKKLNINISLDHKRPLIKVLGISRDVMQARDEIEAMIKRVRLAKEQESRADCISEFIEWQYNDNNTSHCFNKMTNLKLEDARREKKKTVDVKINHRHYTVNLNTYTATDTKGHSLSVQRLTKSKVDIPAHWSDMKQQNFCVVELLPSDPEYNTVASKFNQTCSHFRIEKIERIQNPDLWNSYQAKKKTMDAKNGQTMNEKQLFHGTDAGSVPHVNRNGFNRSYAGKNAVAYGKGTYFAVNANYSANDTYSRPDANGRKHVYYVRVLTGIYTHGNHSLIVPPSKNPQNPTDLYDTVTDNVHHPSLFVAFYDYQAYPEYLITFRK

DC50 [nM] | Compound
< 30 | O=C1CCC(NC(=O)C23CC(N4CCN(CCN5CCC(COc6cc(F)c7c(=O)[nH]c(CSC8CCOCC8)nc7c6)CC5)CC4)(C2)C3)C(=O)N1 (centres unmarked) [Example 134, N-(2,6-dioxopiperidin-3-yl)-3-(4-(2-(4-(((5-fluoro-4-oxo-2-(((tetrahydro-2H-pyran-4-yl)thio)methyl)-3,4-dihydroquinazolin-7-yl)oxy)methyl)piperidin-1-yl)ethyl)piperazin-1-yl)bicyclo[1.1.1]pentane-1-carboxamide]
< 30 | O=C1CCC(Nc2ccc(N3CCN(CCN4CCC(COc5cc(F)c6c(=O)[nH]c(CSC7CCOCC7)nc6c5)CC4)CC3)c(Cl)c2)C(=O)N1 (centres unmarked) [Example 137]
< 30 | O=C1CCC(Nc2ccc(N3CC4(CCC(N5CCC(COc6cc(F)c7c(=O)[nH]c(CSC8CCOCC8)nc7c6)CC5)CC4)C3)cc2)C(=O)N1 (centres unmarked) [Example 138]
< 30 | COc1cc(N2CCC(N3CC(N4CCC(COc5cc(F)c6c(=O)[nH]c(CSC7CCOCC7)nc6c5)CC4)C3)CC2)c(F)cc1NC1CCC(=O)NC1=O (centres unmarked) [Example 139]
< 30 | O=C1CCC(Nc2ccc(N3CCC(N4CC(N5CCC(COc6cc(F)c7c(=O)[nH]c(CSC8CCOCC8)nc7c6)CC5)C4)CC3)c(Cl)c2)C(=O)N1 (centres unmarked) [Example 142]
< 30 | O=C1CCC(Nc2ccc(N3CCC(CN4CCC(COc5cc(F)c6c(=O)[nH]c(CSC7CCOCC7)nc6c5)CC4)CC3)c(F)c2)C(=O)N1 (centres unmarked) [Example 144, 3-((3-fluoro-4-(4-((4-(((5-fluoro-4-oxo-2-(((tetrahydro-2H-pyran-4-yl)thio)methyl)-3,4-dihydroquinazolin-7-yl)oxy)methyl)piperidin-1-yl)methyl)piperidin-1-yl)phenyl)amino)piperidine-2,6-dione]
< 30 | O=C1CCC(Nc2ccc(N3CC(N4CCC(N5CCC(COc6cc(F)c7c(=O)[nH]c(CSC8CCOCC8)nc7c6)CC5)CC4)C3)c(F)c2)C(=O)N1 (centres unmarked) [Example 145]
< 30 | O=C1CCC(Nc2ccc(N3CCC(N4CC(N5CCC(COc6cc(F)c7c(=O)[nH]c(CCC8CCOCC8)nc7c6)CC5)C4)CC3)c(F)c2)C(=O)N1 (centres unmarked) [Example 146, 3-((3-fluoro-4-(4-(3-(4-(((5-fluoro-4-oxo-2-(2-(tetrahydro-2H-pyran-4-yl)ethyl)-3,4-dihydroquinazolin-7-yl)oxy)methyl)piperidin-1-yl)azetidin-1-yl)piperidin-1-yl)phenyl)amino)piperidine-2,6-dione formate]
< 30 | CN(c1ccc(NC2CCC(=O)NC2=O)cc1F)C1CC(CN2CCC(COc3cc(F)c4c(=O)[nH]c(CSC5CCOCC5)nc4c3)CC2)C1 (centres unmarked) [Example 147, 3-((3-fluoro-4-((3-((4-(((5-fluoro-4-oxo-2-(((tetrahydro-2H-pyran-4-yl)thio)methyl)-3,4-dihydroquinazolin-7-yl)oxy)methyl)piperidin-1-yl)methyl)cyclobutyl)(methyl)amino)phenyl)amino)piperidine-2,6-dione]
< 30 | O=C1CCC(Nc2ccc(N3CC(N4CC(N5CCC(COc6cc(F)c7c(=O)[nH]c(CSC8CCOCC8)nc7c6)CC5)C4)C3)c(F)c2)C(=O)N1 (centres unmarked) [Example 148, 3-((3-fluoro-4-(3-(4-(((5-fluoro-4-oxo-2-(((tetrahydro-2H-pyran-4-yl)thio)methyl)-3,4-dihydroquinazolin-7-yl)oxy)methyl)piperidin-1-yl)-[1,3′-biazetidin]-1′-yl)phenyl)amino)piperidine-2,6-dione formate]
< 30 | O=C1CCC(Nc2ccc(NC3CC(CN4CCC(COc5cc(F)c6c(=O)[nH]c(CSC7CCOCC7)nc6c5)CC4)C3)c(F)c2)C(=O)N1 (centres unmarked) [Example 150, 3-((3-fluoro-4-((3-((4-(((5-fluoro-4-oxo-2-(((tetrahydro-2H-pyran-4-yl)thio)methyl)-3,4-dihydroquinazolin-7-yl)oxy)methyl)piperidin-1-yl)methyl)cyclobutyl)amino)phenyl)amino)piperidine-2,6-dione formate]

Continued, molecule first:

Compound | DC50 [nM]
O=C1CCC(Nc2ccc(N3CC(N4CCN(CCOc5cc(F)c6c(=O)[nH]c(CSC7CCOCC7)nc6c5)CC4)C3)cc2)C(=O)N1 (centres unmarked) [Example 130, 3-((4-(3-(4-(2-((5-fluoro-4-oxo-2-(((tetrahydro-2H-pyran-4-yl)thio)methyl)-3,4-dihydroquinazolin-7-yl)oxy)ethyl)piperazin-1-yl)azetidin-1-yl)phenyl)amino)piperidine-2,6-dione] | < 30
[2H]C1([2H])N(CCN2CCC(COc3cc(F)c4c(=O)[nH]c(CSC5CCOCC5)nc4c3)CC2)C([2H])([2H])C([2H])([2H])N(c2ccc(NC3CCC(=O)NC3=O)cc2)C1([2H])[2H] (centres unmarked) [Example 131, 3-((4-(4-(2-(4-(((5-fluoro-4-oxo-2-(((tetrahydro-2H-pyran-4-yl)thio)methyl)-3,4-dihydroquinazolin-7-yl)oxy)methyl)piperidin-1-yl)ethyl)piperazin-1-yl-2,2,3,3,5,5,6,6-d8)phenyl)amino)piperidine-2,6-dione] | < 30
O=C1CCC(Nc2ccc(-c3ccc(CCN4CCC(COc5cc(F)c6c(=O)[nH]c(CSC7CCOCC7)nc6c5)CC4)cn3)cc2)C(=O)N1 (centres unmarked) [Example 132] | < 30
O=C1CCC(Nc2ccc(-c3ccc(CCN4CCC(COc5cc(F)c6c(=O)[nH]c(CSC7CCOCC7)nc6c5)CC4)nc3)cc2)C(=O)N1 (centres unmarked) [Example 133] | < 30
O=C1CCC(Nc2ccc(N3CCC(N4CCC(COc5cc(F)c6c(=O)[nH]c(COC7CCOCC7)nc6c5)CC4)CC3)c(F)c2)C(=O)N1 (centres unmarked) [Example 135, 3-((3-fluoro-4-(4-(((5-fluoro-4-oxo-2-(((tetrahydro-2H-pyran-4-yl)oxy)methyl)-3,4-dihydroquinazolin-7-yl)oxy)methyl)-[1,4′-bipiperidin]-1′-yl)phenyl)amino)piperidine-2,6-dione formate] | < 30
O=C1CCC(Nc2ccc(N3CCC(N4CC(N5CCC(COc6cc(F)c7c(=O)[nH]c(COC8CCOCC8)nc7c6)CC5)C4)CC3)c(F)c2)C(=O)N1 (centres unmarked) [Example 136, 3-((3-fluoro-4-(4-(3-(4-(((5-fluoro-4-oxo-2-(((tetrahydro-2H-pyran-4-yl)oxy)methyl)-3,4-dihydroquinazolin-7-yl)oxy)methyl)piperidin-1-yl)azetidin-1-yl)piperidin-1-yl)phenyl)amino)piperidine-2,6-dione] | < 30
COc1cc(N2CCN(CCN3CCC(COc4cc(F)c5c(=O)[nH]c(CSC6CCOCC6)nc5c4)CC3)CC2)c(F)cc1NC1CCC(=O)NC1=O (centres unmarked) [Example 140] | < 30
O=C1CCC(Nc2cc(F)c(N3CCN(CCN4CCC(COc5cc(F)c6c(=O)[nH]c(CSC7CCOCC7)nc6c5)CC4)CC3)cc2F)C(=O)N1 (centres unmarked) [Example 141] | < 30
O=C1CCC(Nc2ccc(N3CCC4(CC3)CC(N3CCC(COc5cc(F)c6c(=O)[nH]c(CSC7CCOCC7)nc6c5)CC3)C4)c(F)c2)C(=O)N1 (centres unmarked) [Example 143, 3-((3-fluoro-4-(2-(4-(((5-fluoro-4-oxo-2-(((tetrahydro-2H-pyran-4-yl)thio)methyl)-3,4-dihydroquinazolin-7-yl)oxy)methyl)piperidin-1-yl)-7-azaspiro[3.5]nonan-7-yl)phenyl)amino)piperidine-2,6-dione] | < 30
O=C1CCC(NC(=O)c2ccc(N3CCC(N4CCC(COc5cc(F)c6c(=O)[nH]c(CSC7CCOCC7)nc6c5)CC4)CC3)cc2F)C(=O)N1 (centres unmarked) [Example 149, N-(2,6-dioxopiperidin-3-yl)-2-fluoro-4-(4-(((5-fluoro-4-oxo-2-(((tetrahydro-2H-pyran-4-yl)thio)methyl)-3,4-dihydroquinazolin-7-yl)oxy)methyl)-[1,4′-bipiperidin]-1′-yl)benzamide] | < 30
O=C1CCC(NC(=O)c2ccc(N3CCC(N4CC(N5CCC(COc6cc(F)c7c(=O)[nH]c(CSC8CCOCC8)nc7c6)CC5)C4)CC3)cc2F)C(=O)N1 (centres unmarked) [Example 151, N-(2,6-dioxopiperidin-3-yl)-2-fluoro-4-(4-(3-(4-(((5-fluoro-4-oxo-2-(((tetrahydro-2H-pyran-4-yl)thio)methyl)-3,4-dihydroquinazolin-7-yl)oxy)methyl)piperidin-1-yl)azetidin-1-yl)piperidin-1-yl)benzamide] | < 30
O=C1CCC(Nc2ccc(N3CCC(C(=O)N4CC(N5CCC(COc6cc(F)c7c(=O)[nH]c(CSC8CCOCC8)nc7c6)CC5)C4)CC3)c(F)c2)C(=O)N1 (centres unmarked) [Example 152, 3-((3-fluoro-4-(4-(3-(4-(((5-fluoro-4-oxo-2-(((tetrahydro-2H-pyran-4-yl)thio)methyl)-3,4-dihydroquinazolin-7-yl)oxy)methyl)piperidin-1-yl)azetidine-1-carbonyl)piperidin-1-yl)phenyl)amino)piperidine-2,6-dione formate] | < 30
